Results published in patent US8841321B2, “Quinoline derivatives as antibacterial agents” (Janssen Pharmaceutica NV, priority 2005, dated 2014).
Values after ≈ are worked out from the molar mass of the structure shown.

Columns and labels:
Experiment in all cases: Microtitre plate assay, IC90 determination
Format in all cases: cell-based
[1] = tested on: BSU 43639 (Bacillus subtilis (ATCC43639)); conditions: for IC90: Bacillus subtilis, ATCC43639, Bacillus subtilis (ATCC43639), read-out: IC90 (μg/ml) BSU 43639
[2] = tested on: STA RMETH (methicilline resistant Staphylococcus aureus (MRSA), a clinical isolate from the University of Antwerp); conditions: for IC90: Staphylococcus aureus, MRSA, read-out: IC90 (μg/ml) STA RMETH
[3] = tested on: PAE 27853 (Pseudomonas aeruginosa (ATCC27853)); conditions: for IC90 (μg/ml) PAE 27853: Pseudomonas aeruginosa (ATCC27853); for IC90: Pseudomonas aeruginosa, ATCC27853, Pseudomonas aeruginosa (ATCC27853), read-out: IC90 (μg/ml) PAE 27853
[4] = tested on: EFA 29212 (Enterococcus faecalis (ATCC29212)); conditions: for IC90 (μg/ml) EFA 29212: Enterococcus faecalis (ATCC29212); for IC90: Enterococcus faecalis, ATCC29212, Enterococcus faecalis (ATCC29212), read-out: IC90 (μg/ml) EFA 29212
[5] = tested on: SPY 8668 (Streptococcus pyogens (ATCC8668)); conditions: for IC90 (μg/ml) SPY 8668: Streptococcus pyogens (ATCC8668); for IC90: Streptococcus, ATCC8668, Streptococcus pyogens (ATCC8668), read-out: IC90 (μg/ml) SPY 8668
[6] = tested on: LMO 49594 (Listeria monocytogenes (ATCC49594)); conditions: for IC90: Listeria monocytogenes, ATCC49594, Listeria monocytogenes (ATCC49594), read-out: IC90 (μg/ml) LMO 49594
[7] = tested on: SPN 6305 (Streptococcus pneumoniae (ATCC6305)); conditions: for IC90 (μg/ml) SPN 6305: Streptococcus pneumoniae (ATCC6305)
Outline: (§1)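 Growth-inhibition endpoint: resazurin added 3 h after inoculation, plates incubated overnight, fluorescence at 530/590 nm after 24 h at 37 °C. Inocula of roughly 10–60 CFU per well in Mueller-Hinton medium; compounds titrated five-fold. IC90 reported as μg/ml.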

[8] = tested on: STA 29213 (Staphylococcus aureus (ATCC29213)); conditions: for IC90 (μg/ml) STA 29213: Staphylococcus aureus (ATCC29213); for IC90: Staphylococcus aureus, ATCC29213, Staphylococcus aureus (ATCC29213), read-out: IC90 (μg/ml) STA 29213
Outline: as §1

Structure (SMILES)	IC90 (μg/ml) BSU 43639 ([1]; Bacillus subtilis (ATCC43639))	IC90 (μg/ml) STA RMETH [2]	IC90 (μg/ml) PAE 27853 [3]	IC90 (μg/ml) EFA 29212 [4]	IC90 (μg/ml) SPY 8668 [5]	IC90 (μg/ml) LMO 49594 ([6]; Listeria monocytogenes (ATCC49594))	IC90 (μg/ml) SPN 6305 [7]	IC90 (μg/ml) STA 29213 [8]	IC90 [3]	IC90 [4]	IC90 [5]	IC90 [8]	IC90 [1]	IC90 [6]	IC90 [2]	IC90 ([7]; Streptococcus pneumoniae, ATCC6305, Streptococcus pneumoniae (ATCC6305), read-out: IC90 (μg/ml) SPN 6305)
COc1ccc2cc(C(O)(CCCCN(C)C)C(c3ccccc3)c3cc4cc(Br)ccc4nc3OC)ccc2c1 (single isomer, unassigned) [Compound 6]	9.7 µg/mL (≈ 15.8 µM)	9.7 µg/mL (≈ 15.8 µM)	9.7 µg/mL (≈ 15.8 µM)	9.7 µg/mL (≈ 15.8 µM)	1.9 µg/mL (≈ 3.1 µM)	9.7 µg/mL (≈ 15.8 µM)	4.9 µg/mL (≈ 7.99 µM)	4.3 µg/mL (≈ 7.01 µM)								
COc1nc2ccc(Br)cc2cc1C(c1ccccc1)C(O)(CCCCN1CCN(C)CC1)CCc1ccc(C)cc1 (single isomer, unassigned) [Compound 141]		14.12 µg/mL (≈ 22.4 µM)	4.46 µg/mL (≈ 7.07 µM)	4.46 µg/mL (≈ 7.07 µM)	4.46 µg/mL (≈ 7.07 µM)		1.99 µg/mL (≈ 3.16 µM)	1.99 µg/mL (≈ 3.16 µM)								
CNCCCCC(O)(CCc1ccccc1)C(c1ccccc1)c1cc2cc(Br)ccc2nc1OC (stereo not shown) [Compound 71]		10.92 µg/mL (≈ 19.9 µM)	8.68 µg/mL (≈ 15.9 µM)	8.68 µg/mL (≈ 15.9 µM)	3.88 µg/mL (≈ 7.09 µM)		1.73 µg/mL (≈ 3.16 µM)	1.73 µg/mL (≈ 3.16 µM)								
CSc1nc2ccc(Br)cc2cc1C(c1ccccc1)C(O)(CCCCN(C)C)c1ccccc1 (stereo not shown) [Compound 1]		12.3 µg/mL (≈ 22.4 µM)	1.95 µg/mL (≈ 3.55 µM)	6.92 µg/mL (≈ 12.6 µM)	1.74 µg/mL (≈ 3.17 µM)		1.74 µg/mL (≈ 3.17 µM)	1.74 µg/mL (≈ 3.17 µM)								
COc1nc2cccc(Br)c2cc1C(c1ccccc1)C(O)(CCCCN(C)C)c1ccc2ccccc2c1 (stereo not shown) [Compound 29]		2.3 µg/mL (≈ 3.94 µM)					9.3 µg/mL (≈ 15.9 µM)		20.7 µg/mL (≈ 35.5 µM)	46.3 µg/mL (≈ 79.3 µM)	20.7 µg/mL (≈ 35.5 µM)	1.9 µg/mL (≈ 3.26 µM)				
COc1nc2ccc(Br)cc2cc1C(c1ccccc1)C(O)(CCCCN(C)C)c1ccc2cc(Br)ccc2c1 (stereo not shown) [Compound 7]		10.5 µg/mL (≈ 15.8 µM)		10.5 µg/mL (≈ 15.8 µM)			2.4 µg/mL (≈ 3.62 µM)		10.5 µg/mL (≈ 15.8 µM)		10.5 µg/mL (≈ 15.8 µM)	2.1 µg/mL (≈ 3.17 µM)	10.5 µg/mL (≈ 15.8 µM)	10.5 µg/mL (≈ 15.8 µM)		
COc1nc2cc(Br)ccc2cc1C(c1ccccc1)C(O)(CCCCN(C)C)c1ccc2ccccc2c1 (stereo not shown) [Compound 33]		5.8 µg/mL (≈ 9.94 µM)	52.0 µg/mL (≈ 89.1 µM)	46.3 µg/mL (≈ 79.3 µM)	46.3 µg/mL (≈ 79.3 µM)		9.3 µg/mL (≈ 15.9 µM)	4.1 µg/mL (≈ 7.03 µM)								
COc1nc2cc(Br)ccc2cc1C(c1ccccc1)C(O)(CCCCN(C)C)c1ccc2ccccc2c1 (stereo not shown) [Compound 32]			1.9 µg/mL (≈ 3.26 µM)	1.9 µg/mL (≈ 3.26 µM)	1.9 µg/mL (≈ 3.26 µM)		1.9 µg/mL (≈ 3.26 µM)	1.9 µg/mL (≈ 3.26 µM)							11.6 µg/mL (≈ 19.9 µM)	
CSc1nc2ccc(Br)cc2cc1C(c1ccccc1)C(O)(CCCCN(C)C)c1ccccc1 (stereo not shown) [Compound 2]		43.7 µg/mL (≈ 79.5 µM)	43.7 µg/mL (≈ 79.5 µM)	43.7 µg/mL (≈ 79.5 µM)	8.7 µg/mL (≈ 15.8 µM)		21.9 µg/mL (≈ 39.8 µM)	43.7 µg/mL (≈ 79.5 µM)					43.7 µg/mL (≈ 79.5 µM)	43.7 µg/mL (≈ 79.5 µM)		
COc1nc2ccc(-c3ccccc3)cc2cc1C(c1ccccc1)C(O)(CCCCN(C)C)c1ccc2ccccc2c1 (stereo not shown) [Compound 41]		9.2 µg/mL (≈ 15.8 µM)	36.6 µg/mL (≈ 63 µM)	9.2 µg/mL (≈ 15.8 µM)	9.2 µg/mL (≈ 15.8 µM)		9.2 µg/mL (≈ 15.8 µM)	9.2 µg/mL (≈ 15.8 µM)					9.2 µg/mL (≈ 15.8 µM)	9.2 µg/mL (≈ 15.8 µM)		
COc1ccc2cc(C(O)(CCCCN(C)C)C(c3ccccc3)c3cc4ccccc4nc3OC)ccc2c1 (stereo not shown) [Compound 35]			8.5 µg/mL (≈ 15.9 µM)		3.8 µg/mL (≈ 7.11 µM)					8.5 µg/mL (≈ 15.9 µM)		2.1 µg/mL (≈ 3.93 µM)			10.7 µg/mL (≈ 20 µM)	1.7 µg/mL (≈ 3.18 µM)
COc1nc2ccc(Br)cc2cc1C(c1ccccc1)C(O)(CCCCN1CCN(C)CC1)c1ccc2ccccc2c1 (single isomer, unassigned) [Compound 112]		2.54 µg/mL (≈ 3.98 µM)	2.02 µg/mL (≈ 3.16 µM)	2.02 µg/mL (≈ 3.16 µM)	2.02 µg/mL (≈ 3.16 µM)		2.54 µg/mL (≈ 3.98 µM)	2.02 µg/mL (≈ 3.16 µM)								
CSc1nc2ccc(Br)cc2cc1C(c1ccccc1)C(O)(CCCCN(C)C)c1ccc2ccccc2c1 (single isomer, unassigned) [Compound 4]							1.9 µg/mL (≈ 3.17 µM)	1.9 µg/mL (≈ 3.17 µM)	1.9 µg/mL (≈ 3.17 µM)	9.5 µg/mL (≈ 15.8 µM)	1.9 µg/mL (≈ 3.17 µM)		9.5 µg/mL (≈ 15.8 µM)	9.5 µg/mL (≈ 15.8 µM)	9.5 µg/mL (≈ 15.8 µM)	
COc1nc2ccc(Br)cc2cc1C(c1ccccc1)C(O)(CCCCN1CCN(C)CC1)CCc1ccccc1 (single isomer, unassigned) [Compound 138]		12.3 µg/mL (≈ 19.9 µM)	2.19 µg/mL (≈ 3.55 µM)	1.74 µg/mL (≈ 2.82 µM)	0.87 µg/mL (≈ 1.41 µM)		2.19 µg/mL (≈ 3.55 µM)	2.45 µg/mL (≈ 3.97 µM)								
COc1nc2ccc(Br)cc2cc1C(c1ccccc1)C(O)(CCCCN(C)C)c1ccc2cc(Br)ccc2c1 (stereo not shown) [Compound 8]		2.6 µg/mL (≈ 3.92 µM)	5.3 µg/mL (≈ 8 µM)	2.1 µg/mL (≈ 3.17 µM)	10.5 µg/mL (≈ 15.8 µM)		10.5 µg/mL (≈ 15.8 µM)	2.4 µg/mL (≈ 3.62 µM)								
COc1nc2ccc(Br)cc2cc1C(c1ccccc1)C(O)(CCCCN1CCN(C)CC1)CCc1ccccc1 (single isomer, unassigned) [Compound 137]		12.3 µg/mL (≈ 19.9 µM)	9.77 µg/mL (≈ 15.8 µM)	9.77 µg/mL (≈ 15.8 µM)	1.95 µg/mL (≈ 3.16 µM)		1.95 µg/mL (≈ 3.16 µM)	1.95 µg/mL (≈ 3.16 µM)								
CNCCCCC(O)(CCc1ccccc1)C(c1ccccc1)c1cc2cc(Br)ccc2nc1OC (stereo not shown) [Compound 70]			1.73 µg/mL (≈ 3.16 µM)	2.18 µg/mL (≈ 3.98 µM)	1.73 µg/mL (≈ 3.16 µM)		0.35 µg/mL (≈ 0.639 µM)					1.73 µg/mL (≈ 3.16 µM)			10.9 µg/mL (≈ 19.9 µM)	
CNCCCCC(O)(c1ccc2ccccc2c1)C(c1ccccc1)c1cc2cc(Br)ccc2nc1OC (racemic) [Compound 75]		11.36 µg/mL (≈ 19.9 µM)	2.02 µg/mL (≈ 3.55 µM)	4.03 µg/mL (≈ 7.08 µM)	1.8 µg/mL (≈ 3.16 µM)		0.9 µg/mL (≈ 1.58 µM)	2.02 µg/mL (≈ 3.55 µM)								
COc1nc2ccc(-c3ccccc3)cc2cc1C(c1ccccc1)C(O)(CCCCN(C)C)c1ccc2ccccc2c1 (stereo not shown) [Compound 40]			1.8 µg/mL (≈ 3.1 µM)	1.8 µg/mL (≈ 3.1 µM)	1.8 µg/mL (≈ 3.1 µM)		1.8 µg/mL (≈ 3.1 µM)					7.3 µg/mL (≈ 12.6 µM)			5.2 µg/mL (≈ 8.95 µM)	
